Measured values published in PMC6133161, “Thiazoles with cyclopropyl fragment as antifungal, anticonvulsant, and anti-Toxoplasma gondii agents: synthesis, toxicity evaluation, and molecular docking study” (Medicinal Chemistry Research, 2018).
Values after ≈ are worked out from the molar mass of the structure shown.

System: C. pulcherrima
Experiment: Broth microdilution MIC/MFC, clinical isolate
Format: cell-based
Details: C. pulcherrima clinical strain; read-out: MFC
Excerpt: (§1) In the study of antifungal activity of the compounds 3a–3j, 15 clinical strains of different species of yeasts from Candida species, namely C. albicans, C. dubliniensis C. famata, C. inconspicua, C. krusei, C. tropicalis, C. glabrata, C. lambica, C. kefyr, C. lusitaniae, C. parapsilosis, C. guilliermondii, C. lusitaniae, C. pulcherrima and C. sake were also used. These fungi were isolated by the author (from Department of Pharmaceutical Microbiology of Medical University in Lublin, Poland) from different clinical materials, e.g., from upper respiratory tract of hospitalized patients including cancer patients (i.e., with non-small cell lung cancer or hematological malignancies). Some patients were after pre-operative or post-operative chemotherapy (treated with etoposide or cis-platin given in doses according to the standard procedures), patients with chronic hepatitis C (undergoing peginterferon and ribavirin therapy or without antiviral therapy), patients with diabetes, elderly people, aged of 65 years old or older, staying in close population, such as a care centre and people staying outside the home care. The Ethical Committee of the Medical University of Lublin approved the study protocol (No. KE-0254/75/2011). The isolates were identified by standard diagnostic methods—biochemical microtest, e.g., API 20C AUX, ID 32C, API Candida (bioMérieux) on the basis of assimilation of various substrates. All the used microbial cultures were first subcultured on nutrient agar or Sabouraud agar for bacteria and fungi, respectively. The RPMI 1640 with MOPS (for fungi) were inoculated with the suspensions of fungal species. Microbial suspensions were prepared in sterile saline (0.85% NaCl) with an optical density of 0.5 McFarland standard scale (Wiegand et al. [2008]). Samples containing examined compounds were dissolved in dimethyl sulfoxide (DMSO). Furthermore, fungal suspensions were put onto Petri dishes with solid media containing 2 mg/ml of the tested compounds followed incubation under appropriate conditions. The inhibition of microbial growth was judged by comparison with a control culture prepared without any sample tested. Nystatin (Sigma) was used as a reference antifungal compound. Subsequently MIC minimal inhibitory concentration (MIC) of the compounds was examined by the microdilution broth method, using their two-fold dilutions in RPMI 1640 broth with MOPS prepared in 96-well polystyrene plates. Final concentrations of the compounds ranged from 1000 to 0.0038 µg/ml. Microbial suspensions were prepared in sterile saline with an optical density of 0.5 McFarland standard. Next fungal suspension was added per each well containing broth and various concentrations of the examined compounds. After incubation, the MIC was assessed spectrophotometric as the lowest concentration of the samples showing complete fungal growth inhibition. Appropriate DMSO, growth and sterile controls were carried out. The medium with no tested substances was used as a control (Wiegand et al. [2008]). The minimal fungicidal concentration (MFC) are defined as the lowest concentration of the compounds that is required to kill a particular fungal species. MFC was determined by removing the culture using for MIC determinations from each well and spotting onto appropriate agar medium. The plates were incubated. The lowest compounds concentration with no visible growth observed was assessed as a fungicidal concentration. All the experiments were repeated three times and representative data are presented.
(§2) The MFC/MIC ratios were calculated in order to determine fungicidal (MFC/MIC ≤ 4) or fungistatic (MFC/MIC > 4) effect of the tested compounds (O’Donnell et al. [2010]).

SMILES | MFC [µg/mL]
N#Cc1ccc(-c2csc(N/N=C/C3CC3)n2)cc1 [Compound 3h, (E)-4-(2-(2-(Cyclopropylmethylene)hydrazinyl)thiazol-4-yl)benzonitrile] | > 1000

Same assay, conditions: C. pulcherrima clinical strain; read-out: MIC

MIC [µg/mL] | SMILES
62.5 (≈ 233 µM) | N#Cc1ccc(-c2csc(N/N=C/C3CC3)n2)cc1 [Compound 3h, (E)-4-(2-(2-(Cyclopropylmethylene)hydrazinyl)thiazol-4-yl)benzonitrile]

System: C. lusitaniae
Experiment: Broth microdilution MIC/MFC, clinical isolate
Format: cell-based
Details: Clavispora lusitaniae; C. lusitaniae clinical strain; read-out: MFC
Excerpt: as §1, §2

SMILES | MFC [µg/mL]
N#Cc1ccc(-c2csc(N/N=C/C3CC3)n2)cc1 [Compound 3h, (E)-4-(2-(2-(Cyclopropylmethylene)hydrazinyl)thiazol-4-yl)benzonitrile] | 0.98 (≈ 3.65 µM)

Same assay, conditions: Clavispora lusitaniae; C. lusitaniae clinical strain; read-out: MIC

MIC [µg/mL] | SMILES
0.24 (≈ 0.894 µM) | N#Cc1ccc(-c2csc(N/N=C/C3CC3)n2)cc1 [Compound 3h, (E)-4-(2-(2-(Cyclopropylmethylene)hydrazinyl)thiazol-4-yl)benzonitrile]

System: C. parapsilosis
Experiment: Broth microdilution MIC/MFC, clinical isolate
Format: cell-based
Details: Lodderomyces parapsilosis; C. parapsilosis clinical strain; read-out: MFC
Excerpt: as §1, §2

SMILES | MFC [µg/mL]
N#Cc1ccc(-c2csc(N/N=C/C3CC3)n2)cc1 [Compound 3h, (E)-4-(2-(2-(Cyclopropylmethylene)hydrazinyl)thiazol-4-yl)benzonitrile] | 31.2 (≈ 116 µM)

Same assay, conditions: Lodderomyces parapsilosis; C. parapsilosis clinical strain; read-out: MIC

MIC [µg/mL] | SMILES
1.95 (≈ 7.27 µM) | N#Cc1ccc(-c2csc(N/N=C/C3CC3)n2)cc1 [Compound 3h, (E)-4-(2-(2-(Cyclopropylmethylene)hydrazinyl)thiazol-4-yl)benzonitrile]

System: C. dubliniensis
Experiment: Broth microdilution MIC/MFC, clinical isolate
Format: cell-based
Details: Candida dubliniensis; C. dubliniensis clinical strain; read-out: MFC
Excerpt: as §1, §2

SMILES | MFC [µg/mL]
N#Cc1ccc(-c2csc(N/N=C/C3CC3)n2)cc1 [Compound 3h, (E)-4-(2-(2-(Cyclopropylmethylene)hydrazinyl)thiazol-4-yl)benzonitrile] | 0.98 (≈ 3.65 µM)

Same assay, conditions: Candida dubliniensis; C. dubliniensis clinical strain; read-out: MIC

MIC [µg/mL] | SMILES
0.48 (≈ 1.79 µM) | N#Cc1ccc(-c2csc(N/N=C/C3CC3)n2)cc1 [Compound 3h, (E)-4-(2-(2-(Cyclopropylmethylene)hydrazinyl)thiazol-4-yl)benzonitrile]

System: C. famata
Experiment: Broth microdilution MIC/MFC, clinical isolate
Format: cell-based
Details: Debaryomyces hansenii; C. famata clinical strain; read-out: MFC
Excerpt: as §1, §2

SMILES | MFC [µg/mL]
N#Cc1ccc(-c2csc(N/N=C/C3CC3)n2)cc1 [Compound 3h, (E)-4-(2-(2-(Cyclopropylmethylene)hydrazinyl)thiazol-4-yl)benzonitrile] | 3.91 (≈ 14.6 µM)

Same assay, conditions: Debaryomyces hansenii; C. famata clinical strain; read-out: MIC

MIC [µg/mL] | SMILES
1.95 (≈ 7.27 µM) | N#Cc1ccc(-c2csc(N/N=C/C3CC3)n2)cc1 [Compound 3h, (E)-4-(2-(2-(Cyclopropylmethylene)hydrazinyl)thiazol-4-yl)benzonitrile]

System: C. tropicalis
Experiment: Broth microdilution MIC/MFC, clinical isolate
Format: cell-based
Details: Candida tropicalis; C. tropicalis clinical strain; read-out: MFC
Excerpt: as §1, §2

SMILES | MFC [µg/mL]
N#Cc1ccc(-c2csc(N/N=C/C3CC3)n2)cc1 [Compound 3h, (E)-4-(2-(2-(Cyclopropylmethylene)hydrazinyl)thiazol-4-yl)benzonitrile] | 0.98 (≈ 3.65 µM)

Same assay, conditions: Candida tropicalis; C. tropicalis clinical strain; read-out: MIC

MIC [µg/mL] | SMILES
0.03 (≈ 0.112 µM) | N#Cc1ccc(-c2csc(N/N=C/C3CC3)n2)cc1 [Compound 3h, (E)-4-(2-(2-(Cyclopropylmethylene)hydrazinyl)thiazol-4-yl)benzonitrile]

System: C. sake
Experiment: Broth microdilution MIC/MFC, clinical isolate
Format: cell-based
Details: Fermentozyma sake; C. sake clinical strain; read-out: MFC
Excerpt: as §1, §2

SMILES | MFC [µg/mL]
N#Cc1ccc(-c2csc(N/N=C/C3CC3)n2)cc1 [Compound 3h, (E)-4-(2-(2-(Cyclopropylmethylene)hydrazinyl)thiazol-4-yl)benzonitrile] | 125 (≈ 466 µM)

Same assay, conditions: Fermentozyma sake; C. sake clinical strain; read-out: MIC

MIC [µg/mL] | SMILES
0.98 (≈ 3.65 µM) | N#Cc1ccc(-c2csc(N/N=C/C3CC3)n2)cc1 [Compound 3h, (E)-4-(2-(2-(Cyclopropylmethylene)hydrazinyl)thiazol-4-yl)benzonitrile]

System: C. albicans
Experiment: Broth microdilution MIC/MFC, clinical isolate
Format: cell-based
Details: Candida albicans; C. albicans clinical strain; read-out: MFC
Excerpt: as §1, §2

SMILES | MFC [µg/mL]
N#Cc1ccc(-c2csc(N/N=C/C3CC3)n2)cc1 [Compound 3h, (E)-4-(2-(2-(Cyclopropylmethylene)hydrazinyl)thiazol-4-yl)benzonitrile] | 15.6 (≈ 58.2 µM)

Same assay, conditions: Candida albicans; C. albicans clinical strain; read-out: MIC

MIC [µg/mL] | SMILES
0.98 (≈ 3.65 µM) | N#Cc1ccc(-c2csc(N/N=C/C3CC3)n2)cc1 [Compound 3h, (E)-4-(2-(2-(Cyclopropylmethylene)hydrazinyl)thiazol-4-yl)benzonitrile]

System: C. kefyr
Experiment: Broth microdilution MIC/MFC, clinical isolate
Format: cell-based
Details: Kluyveromyces marxianus; C. kefyr clinical strain; read-out: MFC
Excerpt: as §1, §2

SMILES | MFC [µg/mL]
N#Cc1ccc(-c2csc(N/N=C/C3CC3)n2)cc1 [Compound 3h, (E)-4-(2-(2-(Cyclopropylmethylene)hydrazinyl)thiazol-4-yl)benzonitrile] | 125 (≈ 466 µM)

Same assay, conditions: Kluyveromyces marxianus; C. kefyr clinical strain; read-out: MIC

MIC [µg/mL] | SMILES
7.81 (≈ 29.1 µM) | N#Cc1ccc(-c2csc(N/N=C/C3CC3)n2)cc1 [Compound 3h, (E)-4-(2-(2-(Cyclopropylmethylene)hydrazinyl)thiazol-4-yl)benzonitrile]

System: C. inconspicua
Experiment: Broth microdilution MIC/MFC, clinical isolate
Format: cell-based
Details: Pichia inconspicua; C. inconspicua clinical strain; read-out: MFC
Excerpt: as §1, §2

SMILES | MFC [µg/mL]
N#Cc1ccc(-c2csc(N/N=C/C3CC3)n2)cc1 [Compound 3h, (E)-4-(2-(2-(Cyclopropylmethylene)hydrazinyl)thiazol-4-yl)benzonitrile] | 0.48 (≈ 1.79 µM)

Same assay, conditions: Pichia inconspicua; C. inconspicua clinical strain; read-out: MIC

MIC [µg/mL] | SMILES
0.24 (≈ 0.894 µM) | N#Cc1ccc(-c2csc(N/N=C/C3CC3)n2)cc1 [Compound 3h, (E)-4-(2-(2-(Cyclopropylmethylene)hydrazinyl)thiazol-4-yl)benzonitrile]

System: C. krusei
Experiment: Broth microdilution MIC/MFC, clinical isolate
Format: cell-based
Details: Pichia kudriavzevii; C. krusei clinical strain; read-out: MFC
Excerpt: as §1, §2

SMILES | MFC [µg/mL]
N#Cc1ccc(-c2csc(N/N=C/C3CC3)n2)cc1 [Compound 3h, (E)-4-(2-(2-(Cyclopropylmethylene)hydrazinyl)thiazol-4-yl)benzonitrile] | 7.81 (≈ 29.1 µM)

Same assay, conditions: Pichia kudriavzevii; C. krusei clinical strain; read-out: MIC

MIC [µg/mL] | SMILES
0.48 (≈ 1.79 µM) | N#Cc1ccc(-c2csc(N/N=C/C3CC3)n2)cc1 [Compound 3h, (E)-4-(2-(2-(Cyclopropylmethylene)hydrazinyl)thiazol-4-yl)benzonitrile]

System: C. glabrata
Experiment: Broth microdilution MIC/MFC, clinical isolate
Format: cell-based
Details: Nakaseomyces glabratus; C. glabrata clinical strain; read-out: MFC
Excerpt: as §1, §2

SMILES | MFC [µg/mL]
N#Cc1ccc(-c2csc(N/N=C/C3CC3)n2)cc1 [Compound 3h, (E)-4-(2-(2-(Cyclopropylmethylene)hydrazinyl)thiazol-4-yl)benzonitrile] | > 1000

Same assay, conditions: Nakaseomyces glabratus; C. glabrata clinical strain; read-out: MIC

MIC [µg/mL] | SMILES
125 (≈ 466 µM) | N#Cc1ccc(-c2csc(N/N=C/C3CC3)n2)cc1 [Compound 3h, (E)-4-(2-(2-(Cyclopropylmethylene)hydrazinyl)thiazol-4-yl)benzonitrile]

System: C. lambica
Experiment: Broth microdilution MIC/MFC, clinical isolate
Format: cell-based
Details: Pichia fermentans; C. lambica clinical strain; read-out: MFC
Excerpt: as §1, §2

SMILES | MFC [µg/mL]
N#Cc1ccc(-c2csc(N/N=C/C3CC3)n2)cc1 [Compound 3h, (E)-4-(2-(2-(Cyclopropylmethylene)hydrazinyl)thiazol-4-yl)benzonitrile] | > 1000

Same assay, conditions: Pichia fermentans; C. lambica clinical strain; read-out: MIC

MIC [µg/mL] | SMILES
125 (≈ 466 µM) | N#Cc1ccc(-c2csc(N/N=C/C3CC3)n2)cc1 [Compound 3h, (E)-4-(2-(2-(Cyclopropylmethylene)hydrazinyl)thiazol-4-yl)benzonitrile]

System: C. guilliermondii
Experiment: Broth microdilution MIC/MFC, clinical isolate
Format: cell-based
Details: Meyerozyma guilliermondii; C. guilliermondii clinical strain; read-out: MFC
Excerpt: as §1, §2

SMILES | MFC [µg/mL]
N#Cc1ccc(-c2csc(N/N=C/C3CC3)n2)cc1 [Compound 3h, (E)-4-(2-(2-(Cyclopropylmethylene)hydrazinyl)thiazol-4-yl)benzonitrile] | 3.91 (≈ 14.6 µM)

Same assay, conditions: Meyerozyma guilliermondii; C. guilliermondii clinical strain; read-out: MIC

MIC [µg/mL] | SMILES
0.48 (≈ 1.79 µM) | N#Cc1ccc(-c2csc(N/N=C/C3CC3)n2)cc1 [Compound 3h, (E)-4-(2-(2-(Cyclopropylmethylene)hydrazinyl)thiazol-4-yl)benzonitrile]

System: Toxoplasma gondii RH strain
Experiment: [3H]-uracil incorporation assay in VERO host cells
Details: Toxoplasma gondii, Vero, read-out: IC50 anti-Tg

SMILES | IC50 [µg/mL]
N#Cc1ccc(-c2csc(N/N=C/C3CC3)n2)cc1 [Compound 3h, (E)-4-(2-(2-(Cyclopropylmethylene)hydrazinyl)thiazol-4-yl)benzonitrile] | 30.1 (≈ 112 µM)

Same assay, conditions: Toxoplasma gondii, Vero, read-out: Proliferation of Toxoplasma gondii RH strain ± SD

SMILES | activity at 0.98 µg/mL [%] | activity at 1.95 µg/mL [%] | activity at 3.91 µg/mL [%] | activity at 7.81 µg/mL [%] | activity at 15.63 µg/mL [%] | activity at 20 µg/mL [%] | activity at 25 µg/mL [%] | activity at 31.25 µg/mL [%]
N#Cc1ccc(-c2csc(N/N=C/C3CC3)n2)cc1 [Compound 3h, (E)-4-(2-(2-(Cyclopropylmethylene)hydrazinyl)thiazol-4-yl)benzonitrile] | 86.1 | 83.3 ± 3.9 | 79.6 ± 1.15 | 75.5 ± 4.89 | 65 ± 3.28 | 56.6 ± 1 | 53.9 ± 6.64 | 43.81 ± 0.06
